Target: (recombinant) catalytic domain of human Bub1 (amino acids 704-1085) (Homo sapiens (Human), UniProt O43683)
Assay: Bub1 kinase assay (TR-FRET)
Type: biochemical
Conditions: ATP 10 μM final, peptide substrate 1 μM final, 60 min at 22° C., read-out: Biological Assay: Bub1 kinase assay median IC50
How it was run: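 Compounds were serially diluted 1:3.4 from 2 mM DMSO stocks and incubated with the enzyme reaction for 60 min at 22° C. The reaction was stopped with EDTA, and biotinylated peptide phosphorylation was read by TR-FRET using Eu anti-mouse IgG, anti-phosphoserine antibody and streptavidin-XL665. IC50 was fitted by 4-parameter logistic to inhibition normalized to no-inhibitor and no-enzyme controls.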

(recombinant) catalytic domain of human Bub1 (amino acids 704-1085), sequence (O43683 704-1085): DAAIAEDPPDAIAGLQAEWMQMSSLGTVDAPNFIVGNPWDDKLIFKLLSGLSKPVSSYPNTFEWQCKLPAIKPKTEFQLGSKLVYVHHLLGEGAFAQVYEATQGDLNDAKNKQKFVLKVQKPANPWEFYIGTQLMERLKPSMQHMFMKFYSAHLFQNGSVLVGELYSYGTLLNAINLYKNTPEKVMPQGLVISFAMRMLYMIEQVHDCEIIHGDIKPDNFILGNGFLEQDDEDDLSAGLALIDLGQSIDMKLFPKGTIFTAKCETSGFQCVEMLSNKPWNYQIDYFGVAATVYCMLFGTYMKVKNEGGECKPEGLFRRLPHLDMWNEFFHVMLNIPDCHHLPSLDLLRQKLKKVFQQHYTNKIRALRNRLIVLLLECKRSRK

For `O=C1CC(C(F)(F)F)Cc2[nH]c(-c3ccncc3Cl)c(Nc3cccc(F)c3)c21` (centres unmarked) [Example 436, 2-(3-chloropyridin-4-yl)-3-[(3-fluorophenyl)amino]-6-(trifluoromethyl)-1,5,6,7-tetrahydro-4H-indol-4-one], which IC50 is on record?
Its IC50 is 20.9 nM.

How did the IC50 turn out when `CC1(C)CC(=O)c2c([nH]c(-c3ccnc(CO)c3)c2Nc2ccccc2)C1` [Example 437, 2-[2-(hydroxymethyl)pyridin-4-yl]-6,6-dimethyl-3-(phenylamino)-1,5,6,7-tetrahydro-4H-indol-4-one] was run?
The IC50 was 579 nM.

How did the IC50 turn out when `CC1(C)CC(=O)c2c([nH]c(-c3ccncc3C(F)(F)F)c2Nc2ccccc2)C1` [Example 438, 6,6-dimethyl-3-(phenylamino)-2-[3-(trifluoromethyl)pyridin-4-yl]-1,5,6,7-tetrahydro-4H-indol-4-one] was run?
Its IC50 is 345 nM.

For `CC1(C)CC(=O)c2c([nH]c(-c3ccnc(S(N)(=O)=O)c3)c2Nc2ccccc2)C1` [Example 439, 4-[6,6-dimethyl-4-oxo-3-(phenylamino)-4,5,6,7-tetrahydro-1H-indol-2-yl]pyridine-2-sulfonamide], which IC50 is on record?
Its IC50 is 649 nM.

How did the IC50 turn out when `O=C1CC(CF)Cc2[nH]c(-c3ccncc3)c(Nc3ccccc3)c21` (centres unmarked) [Example 442, 6-(fluoromethyl)-3-(phenylamino)-2-(pyridin-4-yl)-1,5,6,7-tetrahydro-4H-indol-4-one] was run?
Its IC50 is 6.97 nM.

Which IC50 does the source give for `O=C1CC(CCl)Cc2[nH]c(-c3ccncc3)c(Nc3ccccc3)c21` (centres unmarked) [Example 443, 6-(chloromethyl)-3-(phenylamino)-2-(pyridin-4-yl)-1,5,6,7-tetrahydro-4H-indol-4-one] here?
Its IC50 is 5.05 nM.

For `CC(=O)Nc1cc(-c2[nH]c3c(c2Nc2ccccc2)C(=O)CC(CCl)C3)ccn1` (centres unmarked) [Example 444, N-{4-[6-(chloromethyl)-4-oxo-3-(phenylamino)-4,5,6,7-tetrahydro-1H-indol-2-yl]pyridin-2-yl}acetamide], which IC50 is on record?
Its IC50 is 4.61 nM.

For `CC1(C)CC(=O)c2c([nH]c(-c3ccncc3)c2Nc2ccccc2)C1O` (centres unmarked) [Example 445, 7-hydroxy-6,6-dimethyl-3-(phenylamino)-2-(pyridin-4-yl)-1,5,6,7-tetrahydro-4H-indol-4-one], which IC50 is on record?
Its IC50 is 10 nM.

With `O=C1CCC(O)c2[nH]c(-c3ccncc3)c(Nc3ccccc3)c21` (centres unmarked) [Example 446, 7-hydroxy-3-(phenylamino)-2-(pyridin-4-yl)-1,5,6,7-tetrahydro-4H-indol-4-one] as the molecule, how does the IC50 read?
The IC50 was 40.1 nM.

With `Cn1cc(C(=O)Nc2cc(-c3[nH]c4c(c3Nc3ccccc3)C(=O)CCC4)ccn2)cn1` [Example 447, 1-methyl-N-{4-[4-oxo-3-(phenylamino)-4,5,6,7-tetrahydro-1H-indol-2-yl]pyridin-2-yl}-1H-pyrazole-4-carboxamide] as the molecule, how does the IC50 read?
Its IC50 is 11.2 nM.

For `CC(C)(C)n1cc(C(=O)Nc2cc(-c3[nH]c4c(c3Nc3ccccc3)C(=O)CCC4)ccn2)cn1` [Example 448, 1-tert-butyl-N-{4-[4-oxo-3-(phenylamino)-4,5,6,7-tetrahydro-1H-indol-2-yl]pyridin-2-yl}-1H-pyrazole-4-carboxamide], which IC50 is on record?
The IC50 was 8.93 nM.

For `O=C(Nc1cc(-c2[nH]c3c(c2Nc2ccccc2)C(=O)CCC3)ccn1)c1cnn(Cc2ccccc2)c1` [Example 449, 1-benzyl-N-{4-[4-oxo-3-(phenylamino)-4,5,6,7-tetrahydro-1H-indol-2-yl]pyridin-2-yl}-1H-pyrazole-4-carboxamide], which IC50 is on record?
Its IC50 is 4.38 nM.

How did the IC50 turn out when `COc1ccc(Cn2cc(C(=O)Nc3cc(-c4[nH]c5c(c4Nc4ccccc4)C(=O)CCC5)ccn3)cn2)cc1` [Example 450, 1-(4-methoxybenzyl)-N-{4-[4-oxo-3-(phenylamino)-4,5,6,7-tetrahydro-1H-indol-2-yl]pyridin-2-yl}-1H-pyrazole-4-carboxamide] was run?
The IC50 was 6.24 nM.

For `O=C(Nc1cc(-c2[nH]c3c(c2Nc2ccccc2)C(=O)CCC3)ccn1)c1ccc(F)c(F)c1` [Example 451, 3,4-difluoro-N-{4-[4-oxo-3-(phenylamino)-4,5,6,7-tetrahydro-1H-indol-2-yl]pyridin-2-yl}benzamide], which IC50 is on record?
Its IC50 is 8.82 nM.

Which IC50 does the source give for `O=C(Nc1cc(-c2[nH]c3c(c2Nc2ccccc2)C(=O)CCC3)ccn1)c1cc(F)cc(F)c1` [Example 452, 3,5-difluoro-N-{4-[4-oxo-3-(phenylamino)-4,5,6,7-tetrahydro-1H-indol-2-yl]pyridin-2-yl}benzamide] here?
Its IC50 is 19.2 nM.

Which IC50 does the source give for `COc1cc(C(=O)Nc2cc(-c3[nH]c4c(c3Nc3ccccc3)C(=O)CCC4)ccn2)ccc1F` [Example 453, 4-fluoro-3-methoxy-N-{4-[4-oxo-3-(phenylamino)-4,5,6,7-tetrahydro-1H-indol-2-yl]pyridin-2-yl}benzamide] here?
The IC50 was 10 nM.

Which IC50 does the source give for `Cn1ccc(C(=O)Nc2cc(-c3[nH]c4c(c3Nc3ccccc3)C(=O)CCC4)ccn2)n1` [Example 454, 1-methyl-N-{4-[4-oxo-3-(phenylamino)-4,5,6,7-tetrahydro-1H-indol-2-yl]pyridin-2-yl}-1H-pyrazole-3-carboxamide] here?
The IC50 was 7.33 nM.

`O=C1CCCc2[nH]c(-c3ccncc3OCC3CC3)c(Nc3ccccc3)c21` [Example 455, 2-[3-(cyclopropylmethoxy)pyridin-4-yl]-3-(phenylamino)-1,5,6,7-tetrahydro-4H-indol-4-one] was tested. Which IC50 did it give?
The IC50 was 24.4 nM.

With `CCCOc1cnccc1-c1[nH]c2c(c1Nc1ccccc1)C(=O)CCC2` [Example 456, 3-(phenylamino)-2-(3-propoxypyridin-4-yl)-1,5,6,7-tetrahydro-4H-indol-4-one] as the molecule, how does the IC50 read?
Its IC50 is 73.3 nM.

`O=C1CCCc2[nH]c(-c3ccncc3OCC(F)F)c(Nc3ccccc3)c21` [Example 457, 2-[3-(2,2-difluoroethoxy)pyridin-4-yl]-3-(phenylamino)-1,5,6,7-tetrahydro-4H-indol-4-one] was tested. Which IC50 did it give?
Its IC50 is 53.5 nM.

For `O=C1CCCc2[nH]c(-c3ccncc3OCC(F)(F)F)c(Nc3ccccc3)c21` [Example 458, 3-(phenylamino)-2-[3-(2,2,2-trifluoroethoxy)pyridin-4-yl]-1,5,6,7-tetrahydro-4H-indol-4-one], which IC50 is on record?
Its IC50 is 78.7 nM.

For `O=C1CCCc2[nH]c(-c3ccncc3OCCO)c(Nc3ccccc3)c21` [Example 459, 2-[3-(2-hydroxyethoxy)pyridin-4-yl]-3-(phenylamino)-1,5,6,7-tetrahydro-4H-indol-4-one], which IC50 is on record?
The IC50 was 58.8 nM.

How did the IC50 turn out when `CC1(C)OC[C@@H](C(=O)Nc2cc(-c3[nH]c4c(c3Nc3ccccc3)C(=O)CCC4)ccn2)O1` [Example 460, (4S)-2,2-dimethyl-N-{4-[4-oxo-3-(phenylamino)-4,5,6,7-tetrahydro-1H-indol-2-yl]pyridin-2-yl}-1,3-dioxolane-4-carboxamide] was run?
Its IC50 is 19.7 nM.

`CC(=O)Nc1cc(-c2[nH]c3c(c2Nc2ccccc2)C(=O)CC(CF)C3)ccn1` (centres unmarked) [Example 461, N-{4-[6-(fluoromethyl)-4-oxo-3-(phenylamino)-4,5,6,7-tetrahydro-1H-indol-2-yl]pyridin-2-yl}acetamide] was tested. Which IC50 did it give?
Its IC50 is 6.88 nM.

`O=C(COc1ccc(F)cc1)Nc1cc(-c2[nH]c3c(c2Nc2ccccc2)C(=O)CCC3)ccn1` [Example 462, N-[4-(3-anilino-4-oxo-4,5,6,7-tetrahydro-1H-indol-2-yl)pyridin-2-yl]-2-(4-fluorophenoxy)acetamide] was tested. Which IC50 did it give?
Its IC50 is 18.2 nM.

For `Cn1ccnc1CC(=O)Nc1cc(-c2[nH]c3c(c2Nc2ccccc2)C(=O)CCC3)ccn1` [Example 463, N-[4-(3-anilino-4-oxo-4,5,6,7-tetrahydro-1H-indol-2-yl)pyridin-2-yl]-2-(1-methyl-1H-imidazol-2-yl)acetamide], which IC50 is on record?
Its IC50 is 142 nM.

`CC1(C)CC(=O)c2c([nH]c(-c3ccncc3O)c2Nc2ccccc2)C1` [Example 464, 3-anilino-2-(3-hydroxypyridin-4-yl)-6,6-dimethyl-1,5,6,7-tetrahydro-4H-indol-4-one] was tested. Which IC50 did it give?
The IC50 was 58.9 nM.

Which IC50 does the source give for `CC1(C)CC(=O)c2c([nH]c(-c3ccnc(NC(=O)c4ccn[nH]4)c3)c2Nc2ccccc2)C1` [Example 465, N-{4-[6,6-dimethyl-4-oxo-3-(phenylamino)-4,5,6,7-tetrahydro-1H-indol-2-yl]pyridin-2-yl}-1H-pyrazole-3-carboxamide] here?
Its IC50 is 7.19 nM.

For `CC1(C)CC(=O)c2c([nH]c(-c3ccnc(NC(=O)c4cc(F)cc(F)c4)c3)c2Nc2ccccc2)C1` [Example 467, N-{4-[6,6-dimethyl-4-oxo-3-(phenylamino)-4,5,6,7-tetrahydro-1H-indol-2-yl]pyridin-2-yl}-3,5-difluorobenzamide], which IC50 is on record?
Its IC50 is 23.3 nM.

`CC1(C)CC(=O)c2c([nH]c(-c3ccnc(OCc4ccccc4)c3)c2Nc2ccccc2)C1` [Example 468, 2-[2-(benzyloxy)pyridin-4-yl]-6,6-dimethyl-3-(phenylamino)-1,5,6,7-tetrahydro-4H-indol-4-one] was tested. Which IC50 did it give?
Its IC50 is over 20000 nM.

`CC1(C)CC(=O)c2c([nH]c(-c3ccnc(O)c3)c2Nc2ccccc2)C1` [Example 469, 2-(2-hydroxypyridin-4-yl)-6,6-dimethyl-3-(phenylamino)-1,5,6,7-tetrahydro-4H-indol-4-one] was tested. Which IC50 did it give?
The IC50 was 2160 nM.

How did the IC50 turn out when `O=C(Nc1cc(-c2[nH]c3c(c2Nc2ccccc2)C(=O)CC2(CC2)C3)ccn1)c1cocn1` [Example 470, N-{4-[4′-oxo-3′-(phenylamino)-1′,4′,5′,7′-tetrahydrospiro[cyclopropane-1,6′-indol]-2′-yl]pyridin-2-yl}-1,3-oxazole-4-carboxamide] was run?
The IC50 was 4.49 nM.

How did the IC50 turn out when `CO/N=C1\CC(C)(C)Cc2[nH]c(-c3ccncc3)c(Nc3ccccc3)c21` [Example 471, 4-(methoxyimino)-6,6-dimethyl-N-phenyl-2-(pyridin-4-yl)-4,5,6,7-tetrahydro-1H-indol-3-amine] was run?
The IC50 was 4430 nM.

How did the IC50 turn out when `CC1(C)CC(=O)c2c([nH]c(-c3ccnc(NC(=O)c4cnn(C(C)(C)C)c4)c3)c2Nc2ccccc2)C1` [Example 472, 1-tert-butyl-N-{4-[6,6-dimethyl-4-oxo-3-(phenylamino)-4,5,6,7-tetrahydro-1H-indol-2-yl]pyridin-2-yl}-1H-pyrazole-4-carboxamide] was run?
The IC50 was 5.04 nM.

With `CC1(C)CC(=O)c2c([nH]c(-c3ccnc(NC(=O)c4ccc(F)c(F)c4)c3)c2Nc2ccccc2)C1` [Example 473, N-{4-[6,6-dimethyl-4-oxo-3-(phenylamino)-4,5,6,7-tetrahydro-1H-indol-2-yl]pyridin-2-yl}-3,4-difluorobenzamide] as the molecule, how does the IC50 read?
The IC50 was 10.3 nM.

— US10428044B2, “3-amino-1,5,6,7-tetrahydro-4H-indol-4-ones” (Bayer Pharma Aktiengesellschaft, priority 2014, dated 2019)
